± gives the expanded uncertainty stated by the source.
Assays:
[1] = mn = molality of the nth substance listed, in mol/kg; details: 101 kPa, Liquid; for viscosity: Capillary tube (Ostwald / Ubbelohde) method; for mass density: Vibrating tube method
[2] = 101.33 kPa, Liquid; for viscosity: Capillary tube (Ostwald / Ubbelohde) method; for mass density: Vibrating tube method

Oc1cccc(O)c1 [1,3-benzenediol] + CCCO
[1]
Details	mass density, 293.15 K [kg/m3]	mass density, 303.15 K [kg/m3]	mass density, 313.15 K [kg/m3]	mass density, 323.15 K [kg/m3]	mass density, 333.15 K [kg/m3]	viscosity, 293.15 K [mPa·s]	viscosity, 303.15 K [mPa·s]	viscosity, 313.15 K [mPa·s]	viscosity, 323.15 K [mPa·s]	viscosity, 333.15 K [mPa·s]
m1 = 1.252	846.41 ± 0.15	838.23 ± 0.16	830.12 ± 0.16	821.85 ± 0.16	813.35 ± 0.16	3.605 ± 0.022	2.74 ± 0.017	2.133 ± 0.013	1.675 ± 0.011	1.374 ± 0.0088
m1 = 2.709	886.87 ± 0.14	878.7 ± 0.15	870.62 ± 0.15	862.49 ± 0.15	854.18 ± 0.15	6.043 ± 0.035	4.375 ± 0.026	3.292 ± 0.02	2.465 ± 0.015	1.952 ± 0.012
m1 = 4.423	924.61 ± 0.14	916.62 ± 0.14	908.69 ± 0.14	900.65 ± 0.14	892.48 ± 0.14	10.37 ± 0.056	7.225 ± 0.041	5.137 ± 0.031	3.736 ± 0.023	2.862 ± 0.018
m1 = 6.471	960.5 ± 0.13	952.55 ± 0.13	944.74 ± 0.13	936.83 ± 0.13	928.84 ± 0.13	18.52 ± 0.096	12.05 ± 0.064	8.179 ± 0.045	5.696 ± 0.033	4.195 ± 0.025
m1 = 8.959	994.1 ± 0.12	986.39 ± 0.12	978.72 ± 0.12	970.97 ± 0.13	963.1 ± 0.13	33.22 ± 0.16	20.29 ± 0.1	12.82 ± 0.068	8.199 ± 0.045	6.412 ± 0.036

Oc1cccc(O)c1 [1,3-benzenediol] + CCCCO
[1]
Details	mass density, 293.15 K [kg/m3]	mass density, 303.15 K [kg/m3]	mass density, 313.15 K [kg/m3]	mass density, 323.15 K [kg/m3]	mass density, 333.15 K [kg/m3]	viscosity, 293.15 K [mPa·s]	viscosity, 303.15 K [mPa·s]	viscosity, 313.15 K [mPa·s]	viscosity, 323.15 K [mPa·s]	viscosity, 333.15 K [mPa·s]
m1 = 1.016	844.32 ± 0.16	836.69 ± 0.16	828.92 ± 0.16	821.01 ± 0.16	812.92 ± 0.16	4.518 ± 0.027	3.357 ± 0.021	2.54 ± 0.016	1.972 ± 0.012	1.674 ± 0.011
m1 = 2.196	878.29 ± 0.15	870.07 ± 0.15	862.36 ± 0.15	854.51 ± 0.15	846.52 ± 0.15	7.007 ± 0.039	5.06 ± 0.03	3.71 ± 0.023	2.809 ± 0.017	2.33 ± 0.014
m1 = 3.586	910.51 ± 0.14	902.98 ± 0.14	895.33 ± 0.14	887.57 ± 0.14	879.68 ± 0.15	11.56 ± 0.061	8.021 ± 0.044	5.552 ± 0.033	4.091 ± 0.025	3.274 ± 0.02
m1 = 5.247	942.6 ± 0.13	935.1 ± 0.13	927.53 ± 0.13	919.86 ± 0.14	912.09 ± 0.14	19.75 ± 0.1	12.64 ± 0.066	8.601 ± 0.047	6.096 ± 0.035	4.84 ± 0.029
m1 = 7.265	974.13 ± 0.13	966.7 ± 0.13	959.2 ± 0.13	951.6 ± 0.13	943.92 ± 0.13	34.34 ± 0.17	20.69 ± 0.11	13.18 ± 0.069	8.804 ± 0.048	6.635 ± 0.037

Oc1cccc(O)c1 [1,3-benzenediol] + CCO
[1]
Details	mass density, m1 = 1.634 [kg/m3]	mass density, m1 = 3.537 [kg/m3]	mass density, m1 = 5.77 [kg/m3]	mass density, m1 = 8.441 [kg/m3]	mass density, m1 = 11.69 [kg/m3]	viscosity, m1 = 1.634 [mPa·s]	viscosity, m1 = 3.537 [mPa·s]	viscosity, m1 = 5.77 [mPa·s]	viscosity, m1 = 8.441 [mPa·s]	viscosity, m1 = 11.69 [mPa·s]
293.15 K	847.02 ± 0.14	897.16 ± 0.13	941.64 ± 0.12	981.15 ± 0.12	1017.03 ± 0.12	2.136 ± 0.013	3.742 ± 0.022	6.373 ± 0.035	11.33 ± 0.059	21.33 ± 0.1
303.15 K	838.53 ± 0.14	889.03 ± 0.13	933.72 ± 0.12	973.42 ± 0.12	1007.47 ± 0.12	1.707 ± 0.01	3.078 ± 0.018	4.872 ± 0.028	8.487 ± 0.046	15.56 ± 0.078
313.15 K	830.12 ± 0.15	880.71 ± 0.13	925.87 ± 0.13	965.64 ± 0.12	1002.06 ± 0.11	1.421 ± 0.0087	2.294 ± 0.014	3.648 ± 0.022	5.94 ± 0.034	9.505 ± 0.051
323.15 K	821.65 ± 0.15	872.63 ± 0.14	918.18 ± 0.13	957.95 ± 0.12	994.49 ± 0.11	1.265 ± 0.0079	1.947 ± 0.012	2.864 ± 0.017	4.295 ± 0.025	6.578 ± 0.036

CCO [ethanol]
[2]
Details	mass density [kg/m3]	viscosity [mPa·s]
293.15 K	790.08 ± 0.15	1.211 ± 0.0075
303.15 K	781 ± 0.16	0.9977 ± 0.0063
313.15 K	772.31 ± 0.16	0.8319 ± 0.0054
323.15 K	763.35 ± 0.16	0.6876 ± 0.0046
333.15 K	754.2 ± 0.16	0.5806 ± 0.004

Oc1cccc(O)c1 [1,3-benzenediol] + O
[1]
Details	mass density, 293.15 K [kg/m3]	mass density, 303.15 K [kg/m3]	mass density, 313.15 K [kg/m3]	mass density, 323.15 K [kg/m3]	mass density, 333.15 K [kg/m3]	viscosity, 293.15 K [mPa·s]	viscosity, 303.15 K [mPa·s]	viscosity, 313.15 K [mPa·s]	viscosity, 323.15 K [mPa·s]	viscosity, 333.15 K [mPa·s]
m1 = 2.361	1041.62 ± 0.11	1037.63 ± 0.11	1032.94 ± 0.11	1027.74 ± 0.11	1021.98 ± 0.11	1.615 ± 0.0096	1.25 ± 0.0076	1.012 ± 0.0063	0.8329 ± 0.0053	0.6974 ± 0.0046
m1 = 4.819	1073.42 ± 0.12	1068.64 ± 0.12	1062.96 ± 0.12	1057.26 ± 0.12	1050.76 ± 0.12	2.481 ± 0.014	1.874 ± 0.011	1.474 ± 0.0089	1.181 ± 0.0073	0.9741 ± 0.0061
m1 = 7.567	1099.32 ± 0.13	1093.72 ± 0.13	1087.57 ± 0.12	1081.27 ± 0.12	1074.55 ± 0.12	3.681 ± 0.021	2.72 ± 0.016	2.089 ± 0.012	1.629 ± 0.0098	1.311 ± 0.0081
m1 = 10.59	1120.13 ± 0.13	1113.97 ± 0.13	1107.55 ± 0.13	1100.86 ± 0.13	1094.26 ± 0.13	5.347 ± 0.03	3.844 ± 0.022	2.867 ± 0.017	2.193 ± 0.013	1.727 ± 0.01
m1 = 13.9	1137.42 ± 0.14	1130.96 ± 0.14	1124.23 ± 0.14	1117.62 ± 0.13	1110.53 ± 0.13	7.61 ± 0.04	5.36 ± 0.03	3.9 ± 0.023	2.909 ± 0.017	2.247 ± 0.013

From the NIST ThermoML archive (doi:10.1021/je101173w)
